Measurements published in the kinase profiling compilation of Christmann-Franck et al. (2016).

Legend:
Test in all cases: KINOMEscan competition binding
Conditions in all cases: compound 10.0 µM
TAOK1 (human) = TAOK1 (human) (UniProt Q7L7X3)
ROCK2 (human) = ROCK2 (human) (UniProt O75116)
MET (human) = MET (human) (UniProt P08581)
FLT3 (human) = FLT3 (human) (UniProt P36888)
GSK3B (human) = GSK3B (human) (UniProt P49841)
WEE1 (human) = WEE1 (human) (UniProt P30291)
PLK4 (human) = PLK4 (human) (UniProt O00444)
[1] = molecular target: JAK1 JH1 catalytic (human) (UniProt P23458)
ROCK1 (human) = ROCK1 (human) (UniProt Q13464)
TSSK1B (human) = TSSK1B (human) (UniProt Q9BXA7)
PAK2 (human) = PAK2 (human) (UniProt Q13177)
MAP3K7 (human) = MAP3K7 (human) (UniProt O43318)
PIM2 (human) = PIM2 (human) (UniProt Q9P1W9)
MAPK9 (human) = MAPK9 (human) (UniProt P45984)
EIF2AK2 (human) = EIF2AK2 (human) (UniProt P19525)
STK35 (human) = STK35 (human) (UniProt Q8TDR2)
INSRR (human) = INSRR (human) (UniProt P14616)
MAPK3 (human) = MAPK3 (human) (UniProt P27361)
TRPM6 (human) = TRPM6 (human) (UniProt Q9BX84)
PAK7 (human) = PAK7 (human) (UniProt Q9P286)
BTK (human) = BTK (human) (UniProt Q06187)
AAK1 (human) = AAK1 (human) (UniProt Q2M2I8)
STK32B (human) = STK32B (human) (UniProt Q9NY57)
FYN (human) = FYN (human) (UniProt P06241)
CASK (human) = CASK (human) (UniProt O14936)
NEK3 (human) = NEK3 (human) (UniProt P51956)
CDK18 (human) = CDK18 (human) (UniProt Q07002)
RIPK2 (human) = RIPK2 (human) (UniProt O43353)
NEK6 (human) = NEK6 (human) (UniProt Q9HC98)
RIPK1 (human) = RIPK1 (human) (UniProt Q13546)
[2] = test system: KIT (human), P10721 [L576P]
MYLK2 (human) = MYLK2 (human) (UniProt Q9H1R3)
CSNK1G1 (human) = CSNK1G1 (human) (UniProt Q9HCP0)
PIM1 (human) = PIM1 (human) (UniProt P11309)
EPHB3 (human) = EPHB3 (human) (UniProt P54753)
MST1R (human) = MST1R (human) (UniProt Q04912)
MAP3K11 (human) = MAP3K11 (human) (UniProt Q16584)
DSTYK (human) = DSTYK (human) (UniProt Q6XUX3)
PKN3 (M.tuberculosis) = PKN3 (M.tuberculosis) (UniProt Q6P5Z2)
DYRK1A (human) = DYRK1A (human) (UniProt Q13627)

Chain of PIM2 (human) (Q9P1W9 whole entry, looked up): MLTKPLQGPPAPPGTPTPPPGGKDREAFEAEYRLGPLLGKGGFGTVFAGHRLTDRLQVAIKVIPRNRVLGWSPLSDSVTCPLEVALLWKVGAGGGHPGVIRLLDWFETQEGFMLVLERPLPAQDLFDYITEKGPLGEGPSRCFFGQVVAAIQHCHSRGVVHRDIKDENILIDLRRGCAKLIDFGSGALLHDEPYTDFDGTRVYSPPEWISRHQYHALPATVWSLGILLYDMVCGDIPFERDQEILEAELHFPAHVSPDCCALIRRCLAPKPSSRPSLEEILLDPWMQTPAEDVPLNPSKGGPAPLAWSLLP
Chain of EIF2AK2 (human) (P19525 whole entry, looked up): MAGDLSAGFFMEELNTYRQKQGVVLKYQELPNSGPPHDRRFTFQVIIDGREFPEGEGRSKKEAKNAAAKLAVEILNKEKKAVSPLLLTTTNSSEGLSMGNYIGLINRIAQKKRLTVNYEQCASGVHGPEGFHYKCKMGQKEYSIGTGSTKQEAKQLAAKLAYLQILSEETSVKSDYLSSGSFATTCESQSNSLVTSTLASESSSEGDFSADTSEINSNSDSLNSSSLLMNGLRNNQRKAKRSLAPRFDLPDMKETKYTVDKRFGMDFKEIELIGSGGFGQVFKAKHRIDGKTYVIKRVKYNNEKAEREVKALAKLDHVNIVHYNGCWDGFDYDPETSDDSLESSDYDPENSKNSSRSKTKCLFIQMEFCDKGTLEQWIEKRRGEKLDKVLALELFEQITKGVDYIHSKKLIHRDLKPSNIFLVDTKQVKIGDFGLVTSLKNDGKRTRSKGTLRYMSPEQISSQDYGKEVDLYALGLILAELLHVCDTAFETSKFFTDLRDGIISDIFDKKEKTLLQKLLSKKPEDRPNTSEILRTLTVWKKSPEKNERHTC
Chain of PLK4 (human) (O00444 whole entry, looked up): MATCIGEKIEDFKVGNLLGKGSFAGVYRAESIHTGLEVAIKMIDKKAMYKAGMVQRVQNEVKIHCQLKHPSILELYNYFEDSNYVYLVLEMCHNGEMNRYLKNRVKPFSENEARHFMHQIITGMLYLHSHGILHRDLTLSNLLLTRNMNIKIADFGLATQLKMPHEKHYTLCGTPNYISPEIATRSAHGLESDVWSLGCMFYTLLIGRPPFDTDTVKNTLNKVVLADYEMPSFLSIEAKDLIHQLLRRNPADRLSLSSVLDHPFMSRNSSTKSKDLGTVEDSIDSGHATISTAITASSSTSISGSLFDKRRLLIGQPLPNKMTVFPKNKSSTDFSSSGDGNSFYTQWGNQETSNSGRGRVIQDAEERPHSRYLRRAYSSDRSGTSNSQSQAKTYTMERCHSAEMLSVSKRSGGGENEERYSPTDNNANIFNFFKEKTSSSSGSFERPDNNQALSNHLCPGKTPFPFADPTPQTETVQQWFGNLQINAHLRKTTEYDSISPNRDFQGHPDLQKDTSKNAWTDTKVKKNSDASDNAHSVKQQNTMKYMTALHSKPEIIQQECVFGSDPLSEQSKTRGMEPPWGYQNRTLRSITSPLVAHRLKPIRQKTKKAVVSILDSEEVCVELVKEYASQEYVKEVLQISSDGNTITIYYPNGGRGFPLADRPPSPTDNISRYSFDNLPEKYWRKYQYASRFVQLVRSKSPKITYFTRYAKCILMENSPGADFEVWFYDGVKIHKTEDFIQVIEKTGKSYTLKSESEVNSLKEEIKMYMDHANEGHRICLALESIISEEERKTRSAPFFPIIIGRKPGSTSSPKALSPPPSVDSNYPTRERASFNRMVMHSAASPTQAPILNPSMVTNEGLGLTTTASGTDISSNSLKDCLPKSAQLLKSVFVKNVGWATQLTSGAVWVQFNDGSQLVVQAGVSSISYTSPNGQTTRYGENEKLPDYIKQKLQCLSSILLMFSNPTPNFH
Chain of JAK1 JH1 catalytic (human) (P23458 whole entry, looked up): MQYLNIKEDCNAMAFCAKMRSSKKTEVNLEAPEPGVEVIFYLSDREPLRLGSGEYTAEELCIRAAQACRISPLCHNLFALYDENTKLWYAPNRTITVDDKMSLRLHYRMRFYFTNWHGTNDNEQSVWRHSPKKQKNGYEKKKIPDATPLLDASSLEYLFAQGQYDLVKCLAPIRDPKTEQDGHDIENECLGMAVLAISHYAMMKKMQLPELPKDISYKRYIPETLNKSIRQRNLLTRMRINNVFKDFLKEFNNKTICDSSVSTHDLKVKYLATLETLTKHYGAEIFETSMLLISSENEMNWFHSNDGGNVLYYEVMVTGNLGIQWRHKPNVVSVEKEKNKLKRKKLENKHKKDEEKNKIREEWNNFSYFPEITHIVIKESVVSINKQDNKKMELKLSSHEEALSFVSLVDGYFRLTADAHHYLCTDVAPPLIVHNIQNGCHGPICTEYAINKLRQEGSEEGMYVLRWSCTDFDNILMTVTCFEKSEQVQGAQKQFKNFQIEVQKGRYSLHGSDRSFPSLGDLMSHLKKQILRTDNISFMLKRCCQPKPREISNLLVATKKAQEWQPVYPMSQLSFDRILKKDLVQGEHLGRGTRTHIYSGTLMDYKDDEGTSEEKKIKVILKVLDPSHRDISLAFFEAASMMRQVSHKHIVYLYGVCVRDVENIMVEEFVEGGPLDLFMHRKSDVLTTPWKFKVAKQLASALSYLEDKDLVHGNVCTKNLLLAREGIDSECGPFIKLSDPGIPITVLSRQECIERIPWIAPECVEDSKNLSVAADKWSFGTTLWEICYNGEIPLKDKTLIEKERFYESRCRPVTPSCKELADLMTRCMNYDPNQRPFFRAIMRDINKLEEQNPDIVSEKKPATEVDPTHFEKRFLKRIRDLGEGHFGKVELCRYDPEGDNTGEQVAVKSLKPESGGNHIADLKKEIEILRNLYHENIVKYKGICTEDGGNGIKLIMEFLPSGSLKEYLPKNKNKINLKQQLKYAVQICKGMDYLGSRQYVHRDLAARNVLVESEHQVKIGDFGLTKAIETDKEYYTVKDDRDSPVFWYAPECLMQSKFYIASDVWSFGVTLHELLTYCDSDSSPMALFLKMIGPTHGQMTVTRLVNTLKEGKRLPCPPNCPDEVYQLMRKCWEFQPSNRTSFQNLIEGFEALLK
Chain of CDK18 (human) (Q07002 whole entry, looked up): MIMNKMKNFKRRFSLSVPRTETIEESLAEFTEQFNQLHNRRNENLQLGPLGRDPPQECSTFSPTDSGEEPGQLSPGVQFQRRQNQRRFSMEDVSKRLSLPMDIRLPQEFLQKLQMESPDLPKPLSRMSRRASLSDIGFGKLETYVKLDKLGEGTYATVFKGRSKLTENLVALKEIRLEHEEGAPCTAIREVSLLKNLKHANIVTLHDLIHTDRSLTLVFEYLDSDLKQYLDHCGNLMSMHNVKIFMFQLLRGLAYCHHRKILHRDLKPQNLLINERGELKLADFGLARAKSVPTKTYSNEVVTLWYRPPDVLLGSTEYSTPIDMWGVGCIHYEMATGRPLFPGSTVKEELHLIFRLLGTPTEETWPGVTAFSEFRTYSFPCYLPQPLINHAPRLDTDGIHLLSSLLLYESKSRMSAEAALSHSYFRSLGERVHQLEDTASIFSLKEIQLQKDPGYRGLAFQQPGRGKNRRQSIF
Chain of NEK3 (human) (P51956 whole entry, looked up): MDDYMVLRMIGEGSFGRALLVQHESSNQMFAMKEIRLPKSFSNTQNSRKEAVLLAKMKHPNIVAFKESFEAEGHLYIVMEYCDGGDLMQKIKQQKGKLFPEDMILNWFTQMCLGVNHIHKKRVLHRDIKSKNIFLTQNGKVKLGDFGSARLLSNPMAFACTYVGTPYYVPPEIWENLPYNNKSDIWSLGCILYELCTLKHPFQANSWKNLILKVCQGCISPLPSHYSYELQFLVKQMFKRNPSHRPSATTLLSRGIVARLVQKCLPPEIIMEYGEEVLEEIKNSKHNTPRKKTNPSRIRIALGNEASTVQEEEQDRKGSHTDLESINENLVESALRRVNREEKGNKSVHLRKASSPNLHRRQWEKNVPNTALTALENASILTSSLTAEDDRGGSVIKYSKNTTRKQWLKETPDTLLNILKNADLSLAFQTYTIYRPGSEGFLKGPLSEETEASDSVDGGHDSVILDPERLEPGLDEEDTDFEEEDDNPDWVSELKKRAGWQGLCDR
Chain of MYLK2 (human) (Q9H1R3 whole entry, looked up): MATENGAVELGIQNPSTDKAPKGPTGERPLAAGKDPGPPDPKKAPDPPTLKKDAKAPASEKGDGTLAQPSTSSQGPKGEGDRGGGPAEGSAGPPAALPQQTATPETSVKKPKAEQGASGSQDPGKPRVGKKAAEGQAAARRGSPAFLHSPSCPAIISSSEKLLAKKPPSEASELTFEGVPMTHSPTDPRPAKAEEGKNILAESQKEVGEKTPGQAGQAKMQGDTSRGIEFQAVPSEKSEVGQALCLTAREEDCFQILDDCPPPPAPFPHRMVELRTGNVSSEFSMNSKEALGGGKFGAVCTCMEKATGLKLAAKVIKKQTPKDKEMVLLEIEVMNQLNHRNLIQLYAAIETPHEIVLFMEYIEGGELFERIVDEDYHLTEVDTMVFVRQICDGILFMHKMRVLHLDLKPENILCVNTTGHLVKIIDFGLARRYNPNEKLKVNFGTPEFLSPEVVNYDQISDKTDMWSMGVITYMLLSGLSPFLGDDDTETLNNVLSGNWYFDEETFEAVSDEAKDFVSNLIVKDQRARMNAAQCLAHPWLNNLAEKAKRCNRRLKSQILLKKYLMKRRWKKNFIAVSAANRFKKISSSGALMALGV
Chain of GSK3B (human) (P49841 whole entry, looked up): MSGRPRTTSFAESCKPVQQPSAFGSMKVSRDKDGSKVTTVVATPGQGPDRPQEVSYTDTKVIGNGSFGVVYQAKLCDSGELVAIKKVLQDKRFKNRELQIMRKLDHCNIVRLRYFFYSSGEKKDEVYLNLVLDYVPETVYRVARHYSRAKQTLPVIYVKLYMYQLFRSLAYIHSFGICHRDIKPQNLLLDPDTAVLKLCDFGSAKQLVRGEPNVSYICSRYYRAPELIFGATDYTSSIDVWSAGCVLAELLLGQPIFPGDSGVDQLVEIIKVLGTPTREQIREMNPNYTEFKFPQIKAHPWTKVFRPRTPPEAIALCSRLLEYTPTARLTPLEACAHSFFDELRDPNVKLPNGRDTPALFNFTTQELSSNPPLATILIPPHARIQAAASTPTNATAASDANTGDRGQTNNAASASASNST

SMILES	kinase still bound, per cent of control (TAOK1 (human))	kinase still bound, per cent of control (ROCK2 (human))	kinase still bound, per cent of control (MET (human))	kinase still bound, per cent of control (GSK3B (human))	kinase still bound, per cent of control (WEE1 (human))	kinase still bound, per cent of control (PLK4 (human))	kinase still bound, per cent of control [1]	kinase still bound, per cent of control (PAK2 (human))	kinase still bound, per cent of control (MAP3K7 (human))	kinase still bound, per cent of control (PIM2 (human))	kinase still bound, per cent of control (MAPK9 (human))	kinase still bound, per cent of control (EIF2AK2 (human))	kinase still bound, per cent of control (STK35 (human))	kinase still bound, per cent of control (INSRR (human))	kinase still bound, per cent of control (MAPK3 (human))	kinase still bound, per cent of control (TRPM6 (human))	kinase still bound, per cent of control (PAK7 (human))	kinase still bound, per cent of control (AAK1 (human))	kinase still bound, per cent of control (STK32B (human))	kinase still bound, per cent of control (FYN (human))	further results
COCC(=O)NC/C=C/c1ccc2ncnc(Nc3ccc(Oc4ccc(C)nc4)c(C)c3)c2c1	94%	100%	74%	68%	100%	74%	100%	87%	100%	100%	53%	99%	65%	100%	95%	100%	87%	100%	92%	100%	kinase still bound, per cent of control (FLT3 (human)): 100%; kinase still bound, per cent of control (ROCK1 (human)): 100%; kinase still bound, per cent of control (TSSK1B (human)): 100%; kinase still bound, per cent of control (BTK (human)): 68%; kinase still bound, per cent of control (CASK (human)): 100%; kinase still bound, per cent of control (NEK3 (human)): 95%; kinase still bound, per cent of control (CDK18 (human)): 99%; kinase still bound, per cent of control (RIPK2 (human)): 26%; kinase still bound, per cent of control (NEK6 (human)): 100%; kinase still bound, per cent of control (RIPK1 (human)): 100%; kinase still bound, per cent of control [2]: 54%; kinase still bound, per cent of control (MYLK2 (human)): 100%; kinase still bound, per cent of control (CSNK1G1 (human)): 100%; kinase still bound, per cent of control (PIM1 (human)): 100%; kinase still bound, per cent of control (EPHB3 (human)): 86%; kinase still bound, per cent of control (MST1R (human)): 100%; kinase still bound, per cent of control (MAP3K11 (human)): 92%; kinase still bound, per cent of control (DSTYK (human)): 75%; kinase still bound, per cent of control (PKN3 (M.tuberculosis)): 23%
COc1cc2ncn(-c3cc(OCc4ccccc4C(F)(F)F)c(C(N)=O)s3)c2cc1OC	47%	100%	15%	100%	83%	29%	100%	96%	66%	100%	78%	78%	56%	100%	100%	100%	98%	28%	100%	48%	kinase still bound, per cent of control (ROCK1 (human)): 4.7%; kinase still bound, per cent of control (BTK (human)): 86%; kinase still bound, per cent of control (CASK (human)): 93%; kinase still bound, per cent of control (NEK3 (human)): 100%; kinase still bound, per cent of control (CDK18 (human)): 83%; kinase still bound, per cent of control (RIPK2 (human)): 41%; kinase still bound, per cent of control (NEK6 (human)): 87%; kinase still bound, per cent of control (RIPK1 (human)): 74%; kinase still bound, per cent of control [2]: 30%; kinase still bound, per cent of control (MYLK2 (human)): 59%; kinase still bound, per cent of control (CSNK1G1 (human)): 86%; kinase still bound, per cent of control (PIM1 (human)): 89%; kinase still bound, per cent of control (DYRK1A (human)): 75%; kinase still bound, per cent of control (EPHB3 (human)): 76%; kinase still bound, per cent of control (MST1R (human)): 100%; kinase still bound, per cent of control (MAP3K11 (human)): 81%; kinase still bound, per cent of control (DSTYK (human)): 88%; kinase still bound, per cent of control (PKN3 (M.tuberculosis)): 76%
CNC(=O)c1cc(Oc2ccc(NC(=O)Nc3ccc(Cl)c(C(F)(F)F)c3)cc2)ccn1	23%	88%	69%	100%	100%	28%	50%	73%	6.2%	91%	19%	73%	34%	97%	100%	100%	100%	100%	100%	48%	kinase still bound, per cent of control (FLT3 (human)): 0.45%; kinase still bound, per cent of control (ROCK1 (human)): 74%; kinase still bound, per cent of control (TSSK1B (human)): 78%; kinase still bound, per cent of control (CASK (human)): 90%; kinase still bound, per cent of control (NEK3 (human)): 70%; kinase still bound, per cent of control (CDK18 (human)): 70%; kinase still bound, per cent of control (RIPK2 (human)): 18%; kinase still bound, per cent of control (NEK6 (human)): 100%; kinase still bound, per cent of control (RIPK1 (human)): 81%; kinase still bound, per cent of control [2]: 0%; kinase still bound, per cent of control (MYLK2 (human)): 43%; kinase still bound, per cent of control (CSNK1G1 (human)): 100%; kinase still bound, per cent of control (PIM1 (human)): 98%; kinase still bound, per cent of control (DYRK1A (human)): 100%; kinase still bound, per cent of control (EPHB3 (human)): 100%; kinase still bound, per cent of control (MST1R (human)): 74%; kinase still bound, per cent of control (MAP3K11 (human)): 99%; kinase still bound, per cent of control (DSTYK (human)): 100%; kinase still bound, per cent of control (PKN3 (M.tuberculosis)): 100%
NC(=O)Nc1cc(-c2cccc(F)c2)sc1C(=O)N[C@@H]1CCCNC1	4.8%	0.2%	3.1%	41%	50%	0%	17%	16%	0%	57%	38%	3.4%	1.1%	22%	91%	74%	0%	1.3%	1%	0.05%	kinase still bound, per cent of control (FLT3 (human)): 0%; kinase still bound, per cent of control (TSSK1B (human)): 2.6%; kinase still bound, per cent of control (BTK (human)): 0.2%; kinase still bound, per cent of control (CASK (human)): 92%; kinase still bound, per cent of control (NEK3 (human)): 43%; kinase still bound, per cent of control (CDK18 (human)): 100%; kinase still bound, per cent of control (RIPK2 (human)): 40%; kinase still bound, per cent of control (NEK6 (human)): 89%; kinase still bound, per cent of control (RIPK1 (human)): 100%; kinase still bound, per cent of control (MYLK2 (human)): 67%; kinase still bound, per cent of control (CSNK1G1 (human)): 7.6%; kinase still bound, per cent of control (PIM1 (human)): 48%; kinase still bound, per cent of control (DYRK1A (human)): 0%; kinase still bound, per cent of control (EPHB3 (human)): 95%; kinase still bound, per cent of control (MST1R (human)): 12%; kinase still bound, per cent of control (DSTYK (human)): 1.3%; kinase still bound, per cent of control (PKN3 (M.tuberculosis)): 0%
